Data: patent US20060069132A1, “Azolecarboxamide herbicides” (priority 2004, published 2006)

Assays:
barnyardgrass = assay: Test B flooded paddy test; type: in vivo, Echinochloa crus-galli; details: 1000 g ai/ha, scale 0 to 100 (0 no effect, 100 complete control)
Method in brief: (§1)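 Plants grow to 1- to 4-leaf stage (2–18 cm) for postemergence spraying, or to 2-leaf stage for the paddy test. Formulated compound is applied. Greenhouse holding lasts 13–15 days. Response is scored visually relative to controls, 0 no effect to 100 complete control; a dash means no result.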

large crabgrass = assay: Test B pre-/postemergence herbicide test; type: in vivo, Digitaria sanguinalis
Method in brief: (§2)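 Formulation: non-phytotoxic solvent mix with surfactant. Timing: preemergence on seed and postemergence on 2–18 cm plants, applied concurrently. Readout after 13–15 d greenhouse: visual 0–100 control rating against controls.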

Surinam grass = assay: Test B pre-/postemergence herbicide test; type: in vivo, Urochloa decumbens
Method in brief: as §2

[1] = system: small flower umbrella sedge; assay: Test B flooded paddy test; type: in vivo, Cyperus difformis; details: 1000 g ai/ha, scale 0 to 100 (0 no effect, 100 complete control)
Method in brief: as §1

pigweed = assay: Test B pre-/postemergence herbicide test; type: in vivo, Amaranthus retroflexus
Method in brief: as §2

blackgrass = assay: Test B postemergence herbicide test; type: in vivo, Alopecurus myosuroides
Method in brief: as §1

rice = assay: Test B flooded paddy test; type: in vivo, Oryza sativa; details: 1000 g ai/ha, scale 0 to 100 (0 no effect, 100 complete control)
Method in brief: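 Scale 0–100: zero equals no visible effect, 100 complete control, judged by eye relative to controls. Timing: 13 to 15 days in greenhouse post-treatment. Growth stage at spraying: two leaves (paddy) or one to four leaves, 2–18 cm (postemergence).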

cocklebur = assay: Test B pre-/postemergence herbicide test; type: in vivo, Xanthium strumarium
Method in brief: (§3)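 Species tested were Echinochloa crus-galli, Ipomoea coccinea, Xanthium strumarium and Oryza sativa, treated both before emergence and at the 1- to 4-leaf stage; rice and barnyardgrass were also tested under flooding at 2 leaves. Greenhouse incubation lasted 13–15 days before visual 0–100 scoring.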

lambsquarters = assay: Test B pre-/postemergence herbicide test; type: in vivo, Chenopodium album
Method in brief: as §2

corn = assay: Test B pre-/postemergence herbicide test; type: in vivo, Zea mays
Method in brief: as §2

wheat = assay: Test B postemergence herbicide test; type: in vivo, Triticum aestivum; parameters: key to Wheat plant response rating: 0 = no effect, 100 = complete control
Method in brief: (§4)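 Formulated test chemicals went onto postemergence plants measuring 2 to 18 cm, at one to four leaves. For the paddy assay, species had reached two leaves. Scoring took place 13–15 days later by eye, relative to untreated plants, using 0 for no effect up to 100 for full control.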

morningglory = assay: Test B pre-/postemergence herbicide test; type: in vivo, Ipomoea coccinea
Method in brief: as §3

wild oat = assay: Test B postemergence herbicide test; type: in vivo, Avena fatua
Method in brief: as §4

giant foxtail = assay: Test B pre-/postemergence herbicide test; type: in vivo, Setaria faberi
Method in brief: as §2

velvetleaf = assay: Test B pre-/postemergence herbicide test; type: in vivo, Abutilon theophrasti
Method in brief: as §2

[2] = 125 g ai/ha, 0 is no effect, 100 is complete control, preemergence
[3] = Postemergence, 500 g ai/ha, scale 0 (no effect) to 100 (complete control)
[4] = postemergence, 125 g ai/ha, scale 0 to 100

C=CCOc1cccc(NC(=O)c2cc(C(C)(C)C)nn2CC)c1 [Compound 412]
Barnyardgrass plant response rating (barnyardgrass): 40 | Plant response rating (0 to 100 scale), Crabgrass, Large (large crabgrass; [2]): 50 | Crabgrass, Large plant response rating (large crabgrass; [3]): 30 | Crabgrass, Large plant response rating (large crabgrass; [4]): 0 | Plant response rating (0 to 100 scale), Surinam Grass (Surinam grass; [2]): 0 | Surinam Grass plant response rating (Surinam grass; [3]): 30 | Surinam Grass plant response rating (Surinam grass; [4]): 0 | Sedge, Umbrella plant response rating [1]: 90 | Plant response rating (0 to 100 scale), Pigweed (pigweed; [2]): 50 | Pigweed plant response rating (pigweed; [3]): 100 | Pigweed plant response rating (pigweed; [4]): 90 | Blackgrass plant response rating (blackgrass; [3]): 40 | Blackgrass plant response rating (blackgrass; [4]): 40 | Rice plant response rating (rice): 40 | Plant response rating (0 to 100 scale), Cocklebur (cocklebur; [2]): 0 | Cocklebur plant response rating (cocklebur; [3]): 30 | Cocklebur plant response rating (cocklebur; [4]): 0 | Plant response rating (0 to 100 scale), Lambsquarters (lambsquarters; [2]): 0 | Lambsquarters plant response rating (lambsquarters; [3]): 100 | Lambsquarters plant response rating (lambsquarters; [4]): 60 | Plant response rating (0 to 100 scale), Corn (corn; [2]): 0 | Corn plant response rating (corn; [3]): 0 | Corn plant response rating (corn; [4]): 0 | Wheat plant response rating (wheat; 500 g ai/ha, scale 0 to 100, 0 no effect, 100 complete control, preemergence): 20 | Wheat plant response rating (wheat; [3]): 20 | Wheat plant response rating (wheat; [4]): 10 | Plant response rating (0 to 100 scale), Morningglory (morningglory; [2]): 0 | Morningglory plant response rating (morningglory; [3]): 0 | Morningglory plant response rating (morningglory; [4]): 0 | Oat, Wild plant response rating (wild oat; [3]): 40 | Oat, Wild plant response rating (wild oat; [4]): 30 | Plant response rating (0 to 100 scale), Foxtail, Giant (giant foxtail; [2]): 30 | Foxtail, Giant plant response rating (giant foxtail; [3]): 30 | Foxtail, Giant plant response rating (giant foxtail; [4]): 30 | Plant response rating (0 to 100 scale), Velvetleaf (velvetleaf; [2]): 0 | Velvetleaf plant response rating (velvetleaf; [3]): 10 | Velvetleaf plant response rating (velvetleaf; [4]): 0
